Drawing on patent publication US20060128662A1, “Novel compounds for treatment of obesity” (Novo Nordisk A/S, priority 2003, published 2006), this text covers EC50 for three compounds.

In general, EC50 refers to the concentration needed to bring the measured effect to its halfway point.

The assay has as its system FSK-4 cells. Nature of the assay: Assay (I): Glucose utilisation in a human epithelia cell line (FSK4 cells), D-(6-3H(N))-glucose. It is filed as cell-based. The note with it: 24 hours incubation, Hill equation, read-out: GlucosFSK4 EC50. On the procedure:
Assay (I): Glucose Utilisation in a Human Epithelia Cell Line (FSK4 cells)
The ^3H-proton will first be released in the TCA cyclus and transported to the respiratory chain where it will be incorporated into water. The water is thereafter separated from the D-(6-^3H(N))-glucose by evaporation.
FSK-4 cells obtained from ATCC (Maryland, USA), are cultured in growth medium (McCoy's medium with the following addition 100 units/ml penicillin and streptomycin and 10% FCS (fetal calf serum)) at 37° C. and 5% CO2.
The cells are then incubated for another 24 hours at 37° C. and 5% CO2.
The half maximal concentration (EC50) and maximal efficacy (Emax) are calculated using the Hill equation in GraphPad Prism 3.0 (GraphPad software, Inc.). […] From the percentage increase in glucose utilisation the linear slope is calculated using the Michaelis-Menten equation.
As to `CC(C)(C)c1cc(/C=C(\C#N)S(=O)(=O)c2ccc(C3CC=CO3)cc2)cc(C(C)(C)C)c1O` (stereo not drawn) [Example 49, 3-(3,5-Di-tert-butyl-4-hydroxy-phenyl)-2-[4-(2,3-dihydro-furan-2-yl)-benzenesulfonyl]-acrylonitrile], the EC50 was 2.2 µM.
The value for `CC(C)(C)c1cc(/C=C(\C#N)S(=O)(=O)c2ccc(/C=C/c3ccccc3)cc2)cc(C(C)(C)C)c1O` [Example 51, 3-(3,5-Di-tert-butyl-4-hydroxy-phenyl)-2-(4-styryl-benzenesulfonyl)-acrylonitrile] was 0.9 µM.
The value for `CC(C)CO/C=C/c1ccc(S(=O)(=O)/C(C#N)=C/c2cc(C(C)(C)C)c(O)c(C(C)(C)C)c2)cc1` [Example 52, 3-(3,5-Di-tert-butyl-4-hydroxy-phenyl)-2-[4-(2-isobutoxy-vinyl)-benzenesulfonyl]-acrylonitrile] was 1 µM.
